Source: patent US4528027A, “Acylthio-substituted triazines” (Shell Oil Company, priority 1984, dated 1985)
Read-outs that look alike come from different tables or passages of the source.

Experiment: Approximate solubility in xylene at room temperature
Format: physicochemical

Row | SMILES | Approximate Solubility at Room Temperature, Grams of Compound per 100 Grams of Xylene | Approximate Solubility at Room Temperature, Grams of Compound per 100 Grams of Xylene (xylene, room temperature)
1 | CCN(SC(=O)OC)c1nc(Cl)nc(NC(C)(C)C#N)n1 [Compound 1, 2-chloro-4-(1-cyano-1-methylethylamino)-6-(N-ethyl-N-((methoxycarbonyl)thio))-1,3,5-triazine] | 26 Grams of Compound per 100 Gram | 
2 | CCN(SC(=O)OC)c1nc(Cl)nc(NC(C)C)n1 [Compound 5] | > 150 Grams of Compound per 100 Gram | 
3 | CCN(SC(=O)OC)c1nc(NC(C)C)nc(SC)n1 [Compound 15, 2-(methylthio)-4-(1-methylethylamino)-6-(N-ethyl-N-((methoxycarbonyl)thio))-1,3,5-triazine] | > 150 Grams of Compound per 100 Gram | 
4 | CCN(SC(=O)OC)c1nc(NC(C)C)nc(OC)n1 [Compound 14, 2-methoxy-4-(1-methylethylamino)-6-(N-ethyl-N-((methoxycarbonyl)thio))-1,3,5-triazine] | > 150 Grams of Compound per 100 Gram | 
5 | CCNc1nc(NC(C)C)nc(OC)n1 [Compound 14A, 2-methoxy-4-(1-methylethylamino)-6-ethylamino-1,3,5-triazine, reference compound] |  | 25 Grams of Compound per 100 Gram
6 | CCNc1nc(Cl)nc(NC(C)(C)C#N)n1 [Compound 1B, 2-chloro-4-(1-cyano-1-methylethylamino)-6-ethylamino-1,3,5-triazine, reference compound] |  | 0.3 Grams of Compound per 100 Gram
